Literature values in US20240268416A1, “ANIMAL FEED ADDITIVE COMPOSITIONS AND METHODS OF USE” (PMI Nutrition, LLC, priority 2023, published 2024).

Test system: C. elegans
Conditions: C. elegans assay

In the case of urolithins, the “concentration needed to obtain a positive effect on muscle function” value is listed as 50 µM and the “concentration required to trigger the muscle function response” value is listed as 11.4 µg/mL.
